From patent publication US8618151B2, “Inhibitors of HCV NS5A” (Presidio Pharmaceuticals, Inc., priority 2008, dated 2013)

Test system: HCV genotype 1b replicon
Test: HCV replicon assay (1b_Huh-Luc/Neo-ET cell line, luciferase readout)
Type: cell-based
Details: Hepatitis C virus, Huh-7, 72 h, read-out: Inhibition of HCV genotype 1b
Experimental: Biological activity of the compounds of the invention was determined using an HCV replicon assay. The 1b_Huh-Luc/Neo-ET cell line persistently expressing a bicistronic genotype 1b replicon in Huh 7 cells was obtained from ReBLikon GMBH. This cell line was used to test compound inhibition using luciferase enzyme activity readout as a measurement of compound inhibition of replicon levels.
On Day 1 (the day after plating), each compound is added in triplicate to the cells. Plates incubated for 72 h prior to running the luciferase assay. Enzyme activity was measured using a Bright-Glo Kit (cat. number E2620) manufactured by Promega Corporation. The following equation was used to generate a percent control value for each compound. % Control=(Average Compound Value/Average Control)*100
The EC50 value was determined using GraphPad Prism and the following equation: Y=Bottom+(Top−Bottom)/1+10^((Log IC50−X)*HillSlope))
EC50 values of compounds are repeated several times in the replicon assay.

`COC(=O)N[C@H](C(=O)N1CCC[C@H]1c1nc(-c2ccc3cc(-c4ccc(-c5cnc([C@@H]6CCCN6C(=O)[C@@H](NC(=O)OC)C(C)C)[nH]5)cc4)ncc3c2)c[nH]1)C(C)C` [compound 22] and `COC(=O)N[C@@H](C(=O)N1CCC[C@H]1c1nc(-c2ccc3cc(-c4ccc(-c5cnc([C@@H]6CCCN6C(=O)[C@H](NC(=O)OC)C(C)C)[nH]5)cc4)ccc3c2)c[nH]1)C(C)C` [compound 2] cannot be ordered by EC50: under 1 nM for the first, under 1 nM for the second.

`CCNC(=O)N[C@@H](C(=O)N1CCC[C@H]1c1ncc(-c2ccc(-c3ccc4cc(-c5c[nH]c([C@@H]6CCCN6C(=O)[C@@H](NC(=O)OC)C(C)C)n5)ccc4n3)cc2)[nH]1)c1ccccc1` [compound 33] and `COC(=O)N[C@H](C(=O)N1CCC[C@H]1c1nc(-c2ccc3nc(-c4ccc(-c5cnc([C@@H]6CCCN6C(=O)[C@H](NC(=O)OC)c6ccccc6)[nH]5)cc4F)ccc3c2)c[nH]1)C(C)C` [compound 107] cannot be ordered by EC50: under 1 nM for the first, under 1 nM for the second.

First: COC(=O)N[C@H](C(=O)N1CCC[C@H]1c1ncc(-c2ccc3ccc(C45CCC(c6cnc([C@@H]7CCCN7C(=O)[C@@H](NC(=O)OC)C(C)C)[nH]6)(CC4)CC5)cc3c2)[nH]1)C(C)C [compound 261]
Second: COC(=O)N[C@H](C(=O)N1CCC[C@H]1c1ncc(-c2ccc3cc(-c4ccc5nc([C@@H]6CCCN6C(=O)[C@@H](NC(=O)OC)C(C)C)[nH]c5c4)ncc3c2)[nH]1)C(C)C [compound 204]
The EC50 of the first is higher: 1 to 9.9 nM for the first, under 1 nM for the second.

`COC(=O)N[C@@H](C(=O)N1CCC[C@H]1c1ncc(-c2ccc(-c3nc4ccc(-c5cnc([C@@H]6CCCN6C(=O)[C@H](NC(=O)OC)c6ccccc6)[nH]5)cc4o3)cc2)[nH]1)c1ccccc1` [compound 235] and `COC(=O)N[C@@H](C(=O)N1CCC[C@H]1c1nc(-c2ccc3nc(-c4ccc(-c5cnc([C@@H]6CCCN6C(=O)[C@H](NC(=O)OC)c6ccccc6)[nH]5)cc4)cc(OC)c3c2)c[nH]1)c1ccccc1` [compound 78] cannot be ordered by EC50: under 1 nM for the first, under 1 nM for the second.

`COC(=O)N[C@H](C(=O)N1CCC[C@H]1c1ncc(-c2ccc(-c3ccc4cc(-c5c[nH]c([C@@H]6CCCN6C(=O)[C@H](NC(=O)OC)c6ccccc6)n5)cnc4c3)cc2)[nH]1)C(C)C` [compound 45] and `COC(=O)N[C@H](C(=O)N1CCC[C@H]1c1nc(-c2cnc3cc(-c4ccc(-c5cnc([C@@H]6CCCN6C(=O)[C@H](NC(=O)OC)c6ccccc6)[nH]5)cc4)ccc3c2)c[nH]1)C(C)C` [compound 32] cannot be ordered by EC50: under 1 nM for the first, under 1 nM for the second.

`COC(=O)N[C@H](C(=O)N1CCC[C@H]1c1nc2ccc(-c3ccc4cc(-c5ccc6nc([C@@H]7CCCN7C(=O)[C@@H](NC(=O)OC)C(C)C)[nH]c6c5)ncc4c3)cc2[nH]1)C(C)C` [compound 281] and `COC(=O)N[C@@H](C)C(=O)N1CCC[C@H]1c1nc2ccc(-c3ccc4cc(-c5ccc6nc([C@@H]7CCCN7C(=O)[C@H](C)NC(=O)OC)[nH]c6c5)ccc4c3)cc2[nH]1` [compound 278] cannot be ordered by EC50: under 1 nM for the first, under 1 nM for the second.

`COC(=O)N[C@H](C(=O)N1CCC[C@H]1c1nc(-c2ccc3cc(-c4ccc(-c5cnc([C@@H]6CCCN6C(=O)[C@H](NC(=O)OC)c6ccccc6)[nH]5)cn4)ccc3c2)c[nH]1)C(C)C` [compound 56] and `COC(=O)N[C@H](C(=O)N1CCC[C@H]1c1nc(-c2ccc3cc(-c4ccc(-c5cnc([C@@H]6CCCN6C(=O)[C@H](NC(=O)OC)c6ccccc6)[nH]5)cc4F)ccc3c2)c[nH]1)C(C)C` [compound 64] cannot be ordered by EC50: under 1 nM for the first, under 1 nM for the second.

`COC(=O)N[C@H](C(=O)N1CCC[C@H]1c1ncc(-c2ccc(-c3ccc4cc(-c5cnc([C@@H]6CCCN6C(=O)[C@@H](NC(=O)OC)C6CCOCC6)[nH]5)ccc4c3)c(F)c2)[nH]1)C1CCOCC1` [compound 141] and `COC(=O)N[C@H](C(=O)N1CCC[C@H]1c1nc(-c2ccc3nc(-c4ccc(-c5cnc([C@@H]6CCCN6C(=O)[C@@H](NC(=O)OC)C6CCOCC6)[nH]5)c(F)c4)ccc3c2)c[nH]1)C1CCOCC1` [compound 108] cannot be ordered by EC50: under 1 nM for the first, under 1 nM for the second.

`COC(=O)N[C@H](C(=O)N1CCC[C@H]1c1ncc(-c2ccc3cc(-c4ccc5nc([C@@H]6CCCN6C(=O)[C@@H](c6ccccc6)N6CCCC6)[nH]c5c4)ccc3c2)[nH]1)C(C)C` [compound 180] and `COC(=O)N[C@H](C(=O)N1CCC[C@H]1c1nc2ccc(-c3ccc4cc(-c5cnc([C@@H]6CCCN6C(=O)[C@@H](c6ccccc6)N6CCCC6)[nH]5)ccc4c3)cc2[nH]1)C(C)C` [compound 178] cannot be ordered by EC50: under 1 nM for the first, under 1 nM for the second.

`COC(=O)N[C@H](C(=O)N1CCC[C@H]1c1nc(-c2cnc3cc(-c4ccc(-c5cnc([C@@H]6CCCN6C(=O)[C@@H](NC(=O)OC)C(C)C)[nH]5)cc4F)ccc3c2)c[nH]1)C(C)C` [compound 57] and `COC(=O)N[C@H](C(=O)N1CCC[C@H]1c1ncc(-c2ccc(-c3ccc4cc(-c5c[nH]c([C@@H]6CCCN6C(=O)[C@H](NC(=O)OC)c6ccccc6)n5)cnc4c3)c(F)c2)[nH]1)C(C)C` [compound 58] cannot be ordered by EC50: under 1 nM for the first, under 1 nM for the second.

`COC(=O)N[C@H](C(=O)N1CCC[C@H]1c1nc2ccc(-c3ccc4cc(-c5cnc([C@@H]6CCCN6C(=O)[C@@H](NC(=O)OC)C6CCOCC6)[nH]5)ccc4n3)cc2[nH]1)C(C)C` [compound 194] and `COC(=O)N[C@H](C(=O)N1CCC[C@H]1c1ncc(-c2ccc3cc(-c4ccc5nc([C@@H]6CCCN6C(=O)[C@@H](NC(=O)OC)C6CCOCC6)[nH]c5c4)ccc3c2)[nH]1)C(C)C` [compound 189] cannot be ordered by EC50: under 1 nM for the first, under 1 nM for the second.

`COC(=O)N[C@H](C(=O)N1CCC[C@H]1c1ncc(-c2ccc(-c3nc4ccc(-c5cnc([C@@H]6CCCN6C(=O)[C@@H](NC(=O)OC)C(C)C)[nH]5)cc4o3)cc2)[nH]1)C(C)C` [compound 234] and `COC(=O)N[C@H](C(=O)N1CCC[C@H]1c1ncc(-c2ccc3oc(-c4ccc(-c5cnc([C@@H]6CCCN6C(=O)[C@@H](NC(=O)OC)C6CCOCC6)[nH]5)cc4)nc3c2)[nH]1)C(C)C` [compound 259] cannot be ordered by EC50: under 1 nM for the first, under 1 nM for the second.

`COC(=O)N[C@H](C(=O)N1CCC[C@H]1c1ncc(-c2ccc3cc(-c4ccc(-c5cnc([C@@H]6CCCN6C(=O)[C@H](NC(=O)OC6CCOCC6)c6ccccc6)[nH]5)cc4F)ncc3c2)[nH]1)C(C)C` [compound 153] and `COC(=O)N[C@H](C(=O)N1CCC[C@H]1c1ncc(-c2ccc3cc(-c4ccc(-c5cnc([C@@H]6CCCN6C(=O)[C@@H](NC(=O)OC)C6CCOCC6)[nH]5)cc4F)ncc3c2)[nH]1)C(C)C` [compound 151] cannot be ordered by EC50: under 1 nM for the first, under 1 nM for the second.

`COC(=O)N[C@H](C(=O)N1CCC[C@H]1c1ncc(-c2ccc3cc(-c4ccc5nc([C@@H]6CCCN6C(=O)[C@H](NC(=O)N6CC[C@H](O)C6)c6ccccc6)[nH]c5c4)ccc3c2)[nH]1)C(C)C` [compound 185] and `CCNC(=O)N[C@@H](C(=O)N1CCC[C@H]1c1ncc(-c2ccc3nc(-c4ccc(-c5cnc([C@@H]6CCCN6C(=O)[C@@H](NC(=O)OC)C(C)C)[nH]5)cc4)oc3c2)[nH]1)c1ccccc1` [compound 252] cannot be ordered by EC50: under 1 nM for the first, under 1 nM for the second.

`COC(=O)N[C@H](C(=O)N1CCC[C@H]1c1nc2ccc3cc(-c4ccc5cc(-c6cnc([C@@H]7CCCN7C(=O)[C@@H](NC(=O)OC)C7CCOCC7)[nH]6)ccc5n4)ccc3c2[nH]1)C(C)C` [compound 297] and `COC(=O)N[C@H](C(=O)N1CCC[C@H]1c1nc(-c2cnc3cc(-c4ccc(-c5cnc([C@@H]6CCCN6C(=O)[C@@H](NC(=O)OC)C6CCOCC6)[nH]5)cc4)ccc3c2)c[nH]1)C(C)C` [compound 49] cannot be ordered by EC50: under 1 nM for the first, under 1 nM for the second.

`COC(=O)N[C@H](C(=O)N1CCC[C@H]1c1nc(-c2ccc3nc(C45CCC(c6cnc([C@@H]7CCCN7C(=O)[C@@H](NC(=O)OC)C7CC7)[nH]6)(CC4)CC5)ccc3c2)c[nH]1)C1CC1` [compound 265] and `COC(=O)N[C@H](C(=O)N1CCC[C@H]1c1nc(-c2ccc3cc(-c4ccc(-c5cnc([C@@H]6CCCN6C(=O)[C@H](NC(=O)OC)c6ccccc6)[nH]5)cc4)ncc3c2)c[nH]1)C1CCOCC1` [compound 100] cannot be ordered by EC50: under 1 nM for the first, under 1 nM for the second.

`COC(=O)N[C@H](C(=O)N1CCC[C@H]1c1nc(-c2ccc3c(=O)n(-c4ccc(-c5cnc([C@@H]6CCCN6C(=O)[C@@H](NC(=O)OC)C(C)C)[nH]5)cc4)ccc3c2)c[nH]1)C(C)C` [compound 287] and `COC(=O)N[C@H](C(=O)N1CCC[C@H]1c1nc(-c2ccc3nc(-c4ccc(-c5cnc([C@@H]6CCCN6C(=O)[C@@H](NC(=O)OC)[C@@H](C)OC)[nH]5)cc4)ccc3c2)c[nH]1)C(C)C` [compound 43] cannot be ordered by EC50: under 1 nM for the first, under 1 nM for the second.

`COC(=O)N[C@H](C(=O)N1CCC[C@H]1c1nc(-c2ccc3cc(-c4ccc(-c5cnc([C@@H]6CCCN6C(=O)[C@@H](NC(=O)OC)[C@@H](C)O)[nH]5)cc4)ccc3c2)c[nH]1)[C@@H](C)O` [compound 4] and `CC[C@@H](C)[C@H](NC(=O)OC)C(=O)N1CCC[C@H]1c1ncc(-c2ccc(-c3ccc4cc(-c5cnc([C@@H]6CCCN6C(=O)[C@@H](NC(=O)OC)[C@H](C)CC)[nH]5)ccc4c3)cc2)[nH]1` [compound 142] cannot be ordered by EC50: under 1 nM for the first, under 1 nM for the second.

`COC(=O)N[C@@H](C(=O)N1CCC[C@H]1c1nc(-c2cnc3cc(-c4ccc(-c5cnc([C@@H]6CCCN6C(=O)[C@H](NC(=O)OC)c6ccccc6)[nH]5)cn4)ccc3c2)c[nH]1)c1ccccc1` [compound 80] and `COC(=O)N[C@H](C(=O)N1CCC[C@H]1c1ncc(-c2ccc(-c3ccc4cc(-c5c[nH]c([C@@H]6CCCN6C(=O)[C@H](NC(=O)OC(C)(C)C)c6ccccc6)n5)ccc4n3)cc2)[nH]1)C1CCOCC1` [compound 91] cannot be ordered by EC50: under 1 nM for the first, under 1 nM for the second.

Molecule `COC(=O)N[C@H](C(=O)N1CCC[C@H]1c1nc(C2CNc3cc(-c4ccc(-c5cnc([C@@H]6CCCN6C(=O)[C@H](NC(=O)OC6CCOCC6)c6ccccc6)[nH]5)cc4)ccc3C2)c[nH]1)C(C)C` (stereo partly drawn) [compound 291] has an EC50 of under 1 nM.
